Where “and” joins values, the source holds several entries; their conditions need not be identical. Identical values can stand only once.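 48-hour exposure; five concentrations; linearly interpolated endpoints. Here, GI50 denotes the concentration required for 50% inhibition of growth. The concentration for full growth arrest is given as TGI.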
Columns and labels:
Assay in all cases: DTP human tumour cell line panel, 48 h
MALME-3M melanoma = system: MALME-3M melanoma
SK-OV-3 ovarian = system: SK-OV-3 ovarian
SNB-75 CNS = system: SNB-75 CNS
SW-620 colon = system: SW-620 colon
LOX IMVI melanoma = system: LOX IMVI melanoma
UACC-257 melanoma = system: UACC-257 melanoma
TK-10 renal = system: TK-10 renal
NCI/ADR-RES ovarian = system: NCI/ADR-RES ovarian
OVCAR-5 ovarian = system: OVCAR-5 ovarian
HL-60(TB) leukemia = system: HL-60(TB) leukemia

Row | SMILES | GI50 (MALME-3M melanoma) [µM] | TGI (MALME-3M melanoma) | GI50 (SK-OV-3 ovarian) [µM] | GI50 (SNB-75 CNS) [µM] | TGI (SNB-75 CNS) | GI50 (SW-620 colon) [µM] | TGI (SW-620 colon) | GI50 (LOX IMVI melanoma) [µM] | TGI (LOX IMVI melanoma) | TGI (UACC-257 melanoma) | GI50 (TK-10 renal) [µM] | TGI (TK-10 renal) | GI50 (NCI/ADR-RES ovarian) [µM] | TGI (NCI/ADR-RES ovarian) | GI50 (OVCAR-5 ovarian) [µM] | TGI (OVCAR-5 ovarian) | TGI (SK-OV-3 ovarian) [µM] | TGI (HL-60(TB) leukemia) [µM] | GI50 (UACC-257 melanoma) [µM]
1 | NCCNc1ccc(NCCN)c2c1C(=O)c1c(O)ccc(O)c1C2=O | 0.112 | 1.46 µM and 1.34 µM | 0.0151 | 0.0227 | 0.206 µM and 0.429 µM | 0.0288 | 1.32 µM and 1.12 µM | 0.031 | 0.252 µM and 0.214 µM | 3.11 µM and 4.1 µM | 0.289 | 3.64 µM and 1.4 µM | 0.237 | 1.39 µM and 2.84 µM | 0.364 | 1.5 µM and 3.18 µM |  |  | 
2 | CC(=O)c1ccc(Nc2nc3ccccc3c3occc23)cc1 |  | 63.4 µM |  |  |  |  |  |  | 61.7 µM | 31.6 µM |  | 35.8 µM |  | 58 µM |  | > 100 µM | 58.8 | 2.4 | 
3 | CC(=O)C(C(=O)C(=O)Nc1cc(Cl)c(Cl)cc1Cl)c1csc(N)n1 (stereo not given) |  |  |  |  | > 100 µM |  | > 100 µM |  | > 100 µM | > 100 µM |  | > 100 µM |  |  |  | > 100 µM | > 100 | > 100 | 
4 | CCCc1cn2c(/C=N/N=C(N)N)c(-c3ccc([N+](=O)[O-])cc3)nc2s1 |  | 3.86 µM |  |  |  |  |  |  | 3.04 µM | 3.03 µM |  | 3.93 µM |  |  |  | 3.14 µM | 2.92 | 2.52 | 
5 | O=[N+]([O-])c1ccc(C2NC(=S)NC3c4cc([N+](=O)[O-])ccc4CCCC23)cc1 (stereo not given) |  | > 100 µM |  |  | 44.2 µM |  | > 100 µM |  | > 100 µM | > 100 µM |  | > 100 µM |  | > 100 µM |  | > 100 µM | > 100 | > 100 | 
6 | COC1=C(OC)C(=O)C(C/C=C/c2c(Cl)nc3sccn23)=C(C)C1=O |  | 17 µM |  |  |  |  | 46 µM |  | 12.1 µM | 5.36 µM |  | 34.9 µM |  | 29.6 µM |  | 38 µM | 33.8 |  | 
7 | CCCCCC1CC(C(C)=O)CN1c1ccc(F)cc1 (stereo not given) |  | > 100 µM |  |  | 86.5 µM |  | > 100 µM |  | > 100 µM | > 100 µM |  | > 100 µM |  |  |  | > 100 µM |  | > 10 | 
8 | CCn1c(=O)c2c3ccc(O)cc3[nH]c2c2ccc(O)cc21 |  | > 100 µM |  |  | > 100 µM |  | > 100 µM |  |  | > 100 µM |  | > 100 µM |  | > 100 µM |  | > 100 µM | > 100 |  | 
9 | O=C(N/N=C/c1cc(Cl)cc(Cl)c1[O-])c1ccccc1O.O=C(N/N=C/c1cc(Cl)cc(Cl)c1[O-])c1ccccc1O.[Cu+2] | 0.367 | 1.38 µM |  |  | 2.13 µM |  | 1.97 µM |  | 1.46 µM | 0.914 µM |  | 1.65 µM |  |  |  | 1.92 µM | 1.38 | 0.512 | 
10 | Cn1cc(-c2csc(-c3cn(CCCN4CCCCC4)c4ccc(Br)cc34)n2)c2cccnc21 | 1.58 | 3.16 µM | 1.92 | 1.44 | 5.8 µM | 1.82 | 3.26 µM |  |  | 3.43 µM | 1.69 | 3.16 µM | 1.92 | 3.73 µM | 1.57 | 3.01 µM | 3.9 |  | 1.8
11 | C[N+]1(C)C/C(=C\C=C\c2ccccc2)C(=O)/C(=C/C=C/c2ccccc2)C1 |  | 40.4 µM |  |  | 40.3 µM |  | 41.5 µM |  | 52.1 µM | 26 µM |  | > 67.1 µM |  | > 100 µM |  | 54.7 µM | 98.8 | 4.13 | 
12 | O=[N+]([O-])c1cc(C(F)(F)F)cc2c1SC1=Nc3ccccc3CN12 |  | > 100 µM |  |  | > 100 µM |  | > 100 µM |  | > 100 µM | > 100 µM |  |  |  | > 100 µM |  | > 100 µM | > 100 | > 100 | 
13 | Nc1n[nH]c(N)n1 |  | > 10000 µM |  |  | > 10000 µM |  | > 10000 µM |  | 7400 µM | > 9050 µM |  | > 10000 µM |  | > 10000 µM |  | > 9810 µM | > 3570 | 7060 | 
14 | O=C(N/N=C/c1cc(Cl)cc(Cl)c1[O-])c1ccccc1O.O=C(N/N=C/c1cc(Cl)cc(Cl)c1[O-])c1ccccc1O.[Fe+2] | 22 | 61.9 µM |  |  | 72.9 µM |  | 48.2 µM |  | 86.5 µM | 85.8 µM |  | > 100 µM |  |  |  |  | 39.1 | 16.3 | 
15 | NC1C2C=CC(C2)C1C(=O)O (stereo not given) |  | > 100 µM |  |  | > 100 µM |  | > 100 µM |  | > 100 µM |  |  | > 100 µM |  | > 100 µM |  | > 100 µM | > 100 | > 100 | 
16 | CCC/C=C/C=C\C(=O)O[C@@H]1[C@@H](C)[C@]2(O)[C@@H]3C=C(C)C(=O)[C@H]3CC(COC(C)=O)=C[C@H]2[C@@H]2C(C)(C)[C@]12OC(C)=O |  | 86.6 µM |  |  | 121 µM |  | 70 µM |  | 57.7 µM | 91.5 µM |  |  |  | 114 µM |  | 119 µM | 143 | 30.5 | 
17 | O=C(N/N=C/c1cc(Cl)cc(Cl)c1[OH2+])c1ccncc1.O=S(=O)([O-])[O-].[Fe+2] |  | 29.3 µM |  |  | > 100 µM |  | > 100 µM |  | 0.332 µM | 41.7 µM |  | 56 µM |  |  |  | 49.8 µM | > 100 | 2.09 | 
18 | NCCCC(N)(C(=O)O)C(F)F (stereo not given) |  | > 5000 µM |  |  | > 5000 µM |  | > 5000 µM |  | > 5000 µM | > 5000 µM |  |  |  | > 5000 µM |  | > 4800 µM | > 5000 | > 5000 | 
19 | Oc1ccccc1CNCc1ccccc1O |  | > 100 µM |  |  | > 100 µM |  | > 100 µM |  | > 100 µM | > 100 µM |  | > 100 µM |  | > 100 µM |  | > 100 µM | > 100 | > 100 | 
20 | COc1cc2c(cc1OC)-c1cc3cc(OC)c(OC)cc3c(C)[n+]1CC2 (tested in a mixture with another compound) |  | > 100 µM |  |  |  |  | > 100 µM |  | > 100 µM | 46.3 µM |  | > 100 µM |  | > 100 µM |  | > 100 µM | > 100 | > 100 | 
21 | CCN(CC)CCCNC(=O)c1ccccc1Nc1c(Cl)cccc1Cl |  |  |  |  | 15.4 µM |  | 30.1 µM |  | 22.3 µM | 7.45 µM |  | 23.7 µM |  |  |  | 24.3 µM | 27.7 | 12.5 | 
22 | O=c1[nH]c(Br)nc2n[nH]nc12 |  | > 100 µM |  |  | > 100 µM |  | > 100 µM |  | > 100 µM | > 100 µM |  | > 100 µM |  | > 100 µM |  | > 100 µM | > 100 | > 100 | 

Reference: PubChem BioAssay (NCI)
